The values that follow come from ChEMBL document CHEMBL5465560, “Selectivity Literature for EUbOPEN Chemogenomic Library” (2024).

Test [1] addresses Cyclin-dependent kinase 1/cyclin B (Homo sapiens) (UniProt P06493+P14635+Q8WWL7+O95067). Put plainly: Selectivity interaction (Kinase panel (Z-LYTE Assay)) EUB0001632a CDK1. It is filed as protein-complex assay. To be noted: at 10 µM.
Test [2] concerns the target Vascular endothelial growth factor receptor 1 (Homo sapiens) (UniProt P17948). To be noted: at 10 µM.
Test [3] deals with LIM domain kinase 1 (Homo sapiens) (UniProt P53667). Put plainly: Selectivity interaction (KinomeScan (DiscoverX)) EUB0000666a LIMK1. To be noted: at 10 µM.
The target of test [4] is Ribosomal protein S6 kinase alpha-5 (Homo sapiens) (UniProt O75582). Put plainly: Selectivity interaction (KinomeScan (DiscoverX)) EUB0000877a RPS6KA5. Conditions: at 10 µM.
The target of test [5] is T1, Serine/threonine-protein kinase Nek10 (Homo sapiens) (UniProt Q6ZWH5).
T1 sequence (whole entry): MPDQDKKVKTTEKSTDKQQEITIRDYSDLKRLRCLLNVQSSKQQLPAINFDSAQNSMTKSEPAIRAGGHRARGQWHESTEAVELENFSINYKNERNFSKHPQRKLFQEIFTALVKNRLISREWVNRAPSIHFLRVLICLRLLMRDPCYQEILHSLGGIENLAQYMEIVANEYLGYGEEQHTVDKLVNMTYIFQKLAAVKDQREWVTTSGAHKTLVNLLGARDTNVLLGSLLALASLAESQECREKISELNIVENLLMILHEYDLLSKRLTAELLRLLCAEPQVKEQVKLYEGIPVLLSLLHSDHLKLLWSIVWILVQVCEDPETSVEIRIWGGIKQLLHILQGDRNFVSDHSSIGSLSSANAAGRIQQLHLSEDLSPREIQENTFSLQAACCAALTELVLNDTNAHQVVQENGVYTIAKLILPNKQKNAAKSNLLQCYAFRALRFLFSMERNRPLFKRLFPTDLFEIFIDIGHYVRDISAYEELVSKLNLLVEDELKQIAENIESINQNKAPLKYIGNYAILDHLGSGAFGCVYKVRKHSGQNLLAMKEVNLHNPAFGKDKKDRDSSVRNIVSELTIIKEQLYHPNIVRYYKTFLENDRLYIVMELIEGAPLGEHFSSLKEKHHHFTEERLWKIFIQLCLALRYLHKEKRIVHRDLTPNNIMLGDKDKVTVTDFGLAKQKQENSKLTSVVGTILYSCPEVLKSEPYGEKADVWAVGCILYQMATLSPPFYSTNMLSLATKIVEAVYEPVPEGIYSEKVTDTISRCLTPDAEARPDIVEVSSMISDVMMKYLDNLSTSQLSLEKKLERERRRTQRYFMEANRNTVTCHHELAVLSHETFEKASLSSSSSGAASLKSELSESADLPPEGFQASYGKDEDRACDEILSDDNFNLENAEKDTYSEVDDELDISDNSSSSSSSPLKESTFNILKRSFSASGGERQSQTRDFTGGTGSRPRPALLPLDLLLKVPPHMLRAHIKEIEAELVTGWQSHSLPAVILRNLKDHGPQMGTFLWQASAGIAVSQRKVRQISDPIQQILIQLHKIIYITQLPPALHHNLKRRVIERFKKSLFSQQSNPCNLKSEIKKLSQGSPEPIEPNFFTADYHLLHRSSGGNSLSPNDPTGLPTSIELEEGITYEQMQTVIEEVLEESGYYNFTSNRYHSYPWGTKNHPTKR
Put plainly: Selectivity interaction (KinomeScan (DiscoverX)) EUB0000695a NEK10. Conditions: at 100 nM.

Test [6] has as its target Histone-lysine N-methyltransferase SETDB1 (Homo sapiens) (UniProt Q15047). Put plainly: Selectivity interaction (PWWP, WD40, and Tudor domain panel (DSLS measurements, literature)) EUB0000270b SETDB1.
Test [7] concerns the target T2, Ankyrin repeat and protein kinase domain-containing protein 1 (Homo sapiens) (UniProt Q8NFD2).
T2 sequence (whole entry): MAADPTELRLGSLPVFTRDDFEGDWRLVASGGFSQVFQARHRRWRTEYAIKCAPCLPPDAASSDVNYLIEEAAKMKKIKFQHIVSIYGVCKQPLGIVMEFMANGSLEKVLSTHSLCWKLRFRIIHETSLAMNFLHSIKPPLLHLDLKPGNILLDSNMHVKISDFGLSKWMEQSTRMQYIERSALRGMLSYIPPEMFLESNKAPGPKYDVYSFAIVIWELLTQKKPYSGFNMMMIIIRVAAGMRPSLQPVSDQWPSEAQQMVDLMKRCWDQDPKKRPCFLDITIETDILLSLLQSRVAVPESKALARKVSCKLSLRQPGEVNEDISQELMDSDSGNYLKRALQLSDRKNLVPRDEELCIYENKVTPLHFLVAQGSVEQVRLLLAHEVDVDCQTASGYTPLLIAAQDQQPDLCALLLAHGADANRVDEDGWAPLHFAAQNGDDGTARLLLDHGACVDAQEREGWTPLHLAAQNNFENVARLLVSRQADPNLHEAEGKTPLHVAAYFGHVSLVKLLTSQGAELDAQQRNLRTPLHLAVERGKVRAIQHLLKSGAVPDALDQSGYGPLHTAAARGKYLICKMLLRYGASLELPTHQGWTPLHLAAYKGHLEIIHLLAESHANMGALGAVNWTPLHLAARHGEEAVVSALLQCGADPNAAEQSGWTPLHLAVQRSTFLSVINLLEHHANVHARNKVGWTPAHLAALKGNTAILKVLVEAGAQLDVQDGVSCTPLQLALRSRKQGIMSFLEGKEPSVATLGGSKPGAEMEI
Put plainly: Selectivity interaction (KinomeScan (DiscoverX)) EUB0000092b ANKK1. To be noted: at 10 µM.

Test [8] deals with Cyclin-dependent kinase 11B (Homo sapiens) (UniProt P21127). Put plainly: Selectivity interaction (KinomeScan (DiscoverX)) EUB0000045b CDK11B.
Cyclin-dependent kinase 11B (Homo sapiens), sequence (P21127 whole entry): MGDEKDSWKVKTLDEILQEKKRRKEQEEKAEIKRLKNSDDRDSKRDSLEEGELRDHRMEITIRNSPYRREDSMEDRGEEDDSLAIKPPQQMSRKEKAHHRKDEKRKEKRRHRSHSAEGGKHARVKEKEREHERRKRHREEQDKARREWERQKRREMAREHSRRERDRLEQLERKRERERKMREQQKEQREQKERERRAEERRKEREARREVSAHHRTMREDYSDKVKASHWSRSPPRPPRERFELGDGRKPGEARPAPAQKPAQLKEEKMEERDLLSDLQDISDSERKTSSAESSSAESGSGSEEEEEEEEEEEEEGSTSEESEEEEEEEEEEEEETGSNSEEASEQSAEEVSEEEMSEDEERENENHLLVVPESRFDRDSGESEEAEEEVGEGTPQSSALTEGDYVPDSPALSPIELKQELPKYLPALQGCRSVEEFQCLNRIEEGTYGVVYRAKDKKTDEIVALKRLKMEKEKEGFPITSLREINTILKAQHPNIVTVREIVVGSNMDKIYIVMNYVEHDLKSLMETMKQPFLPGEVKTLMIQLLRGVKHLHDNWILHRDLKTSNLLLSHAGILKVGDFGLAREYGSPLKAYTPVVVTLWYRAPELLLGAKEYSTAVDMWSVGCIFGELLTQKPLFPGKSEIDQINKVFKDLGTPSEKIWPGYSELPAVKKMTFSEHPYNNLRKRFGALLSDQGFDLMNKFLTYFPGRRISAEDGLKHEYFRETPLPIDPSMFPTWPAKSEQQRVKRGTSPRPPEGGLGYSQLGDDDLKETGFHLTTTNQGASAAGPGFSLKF

Vascular endothelial growth factor receptor 1 (Homo sapiens), sequence (P17948 whole entry, the tested form may be a part): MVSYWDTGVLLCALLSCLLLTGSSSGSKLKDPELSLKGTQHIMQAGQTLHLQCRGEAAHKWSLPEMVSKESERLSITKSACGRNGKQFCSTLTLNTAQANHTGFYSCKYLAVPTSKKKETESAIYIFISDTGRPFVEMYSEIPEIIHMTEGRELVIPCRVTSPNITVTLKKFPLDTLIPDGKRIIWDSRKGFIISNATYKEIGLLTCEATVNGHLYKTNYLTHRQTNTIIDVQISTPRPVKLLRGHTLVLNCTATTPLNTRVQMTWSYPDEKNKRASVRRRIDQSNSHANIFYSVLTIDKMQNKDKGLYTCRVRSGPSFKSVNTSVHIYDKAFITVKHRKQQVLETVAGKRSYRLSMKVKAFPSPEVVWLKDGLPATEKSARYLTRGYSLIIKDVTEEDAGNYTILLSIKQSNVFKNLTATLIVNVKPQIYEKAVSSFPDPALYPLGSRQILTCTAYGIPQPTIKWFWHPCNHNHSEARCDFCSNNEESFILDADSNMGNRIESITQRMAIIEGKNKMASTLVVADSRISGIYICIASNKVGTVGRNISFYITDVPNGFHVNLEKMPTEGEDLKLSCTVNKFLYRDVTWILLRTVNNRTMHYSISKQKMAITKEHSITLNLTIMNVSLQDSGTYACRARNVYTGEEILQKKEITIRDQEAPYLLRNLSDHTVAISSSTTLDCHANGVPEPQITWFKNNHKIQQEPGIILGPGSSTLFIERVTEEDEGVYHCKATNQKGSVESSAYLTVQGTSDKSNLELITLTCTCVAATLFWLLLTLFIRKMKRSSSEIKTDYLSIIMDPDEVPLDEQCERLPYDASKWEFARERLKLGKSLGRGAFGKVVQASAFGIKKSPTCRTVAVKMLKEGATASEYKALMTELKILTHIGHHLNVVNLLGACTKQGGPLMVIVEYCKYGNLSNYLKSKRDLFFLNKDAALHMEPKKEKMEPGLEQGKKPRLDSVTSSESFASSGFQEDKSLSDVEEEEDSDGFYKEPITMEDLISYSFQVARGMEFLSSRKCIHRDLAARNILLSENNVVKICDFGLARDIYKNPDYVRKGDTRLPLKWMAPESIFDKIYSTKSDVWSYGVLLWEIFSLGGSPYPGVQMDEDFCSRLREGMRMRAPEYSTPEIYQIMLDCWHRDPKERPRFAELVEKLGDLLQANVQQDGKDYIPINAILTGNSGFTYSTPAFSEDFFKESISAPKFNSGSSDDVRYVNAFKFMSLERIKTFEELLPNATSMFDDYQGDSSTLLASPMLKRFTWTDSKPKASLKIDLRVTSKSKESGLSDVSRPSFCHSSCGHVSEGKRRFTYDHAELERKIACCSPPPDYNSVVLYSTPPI
Ribosomal protein S6 kinase alpha-5 (Homo sapiens), sequence (O75582 whole entry, looked up): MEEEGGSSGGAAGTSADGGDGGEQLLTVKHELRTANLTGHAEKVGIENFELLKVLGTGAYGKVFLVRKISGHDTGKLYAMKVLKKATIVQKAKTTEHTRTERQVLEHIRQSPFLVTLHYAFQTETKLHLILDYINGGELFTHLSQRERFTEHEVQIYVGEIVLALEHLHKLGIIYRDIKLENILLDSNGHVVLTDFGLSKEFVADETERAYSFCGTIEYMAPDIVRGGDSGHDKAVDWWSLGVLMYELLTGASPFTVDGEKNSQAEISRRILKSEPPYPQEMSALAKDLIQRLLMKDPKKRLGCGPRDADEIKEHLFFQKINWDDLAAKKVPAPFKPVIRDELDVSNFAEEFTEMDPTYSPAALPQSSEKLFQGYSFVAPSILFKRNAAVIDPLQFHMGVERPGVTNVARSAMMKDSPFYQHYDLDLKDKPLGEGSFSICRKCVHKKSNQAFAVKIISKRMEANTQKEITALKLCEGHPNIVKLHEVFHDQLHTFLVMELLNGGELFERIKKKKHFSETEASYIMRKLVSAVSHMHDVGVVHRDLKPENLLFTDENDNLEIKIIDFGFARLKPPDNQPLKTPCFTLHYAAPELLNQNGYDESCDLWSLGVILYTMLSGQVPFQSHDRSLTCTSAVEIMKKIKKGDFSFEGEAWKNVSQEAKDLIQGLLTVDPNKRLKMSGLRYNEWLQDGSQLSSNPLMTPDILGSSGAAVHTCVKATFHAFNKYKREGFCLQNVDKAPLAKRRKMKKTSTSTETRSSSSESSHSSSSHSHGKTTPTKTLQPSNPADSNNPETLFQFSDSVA
LIM domain kinase 1 (Homo sapiens), sequence (P53667 whole entry, looked up, the tested form may be a part): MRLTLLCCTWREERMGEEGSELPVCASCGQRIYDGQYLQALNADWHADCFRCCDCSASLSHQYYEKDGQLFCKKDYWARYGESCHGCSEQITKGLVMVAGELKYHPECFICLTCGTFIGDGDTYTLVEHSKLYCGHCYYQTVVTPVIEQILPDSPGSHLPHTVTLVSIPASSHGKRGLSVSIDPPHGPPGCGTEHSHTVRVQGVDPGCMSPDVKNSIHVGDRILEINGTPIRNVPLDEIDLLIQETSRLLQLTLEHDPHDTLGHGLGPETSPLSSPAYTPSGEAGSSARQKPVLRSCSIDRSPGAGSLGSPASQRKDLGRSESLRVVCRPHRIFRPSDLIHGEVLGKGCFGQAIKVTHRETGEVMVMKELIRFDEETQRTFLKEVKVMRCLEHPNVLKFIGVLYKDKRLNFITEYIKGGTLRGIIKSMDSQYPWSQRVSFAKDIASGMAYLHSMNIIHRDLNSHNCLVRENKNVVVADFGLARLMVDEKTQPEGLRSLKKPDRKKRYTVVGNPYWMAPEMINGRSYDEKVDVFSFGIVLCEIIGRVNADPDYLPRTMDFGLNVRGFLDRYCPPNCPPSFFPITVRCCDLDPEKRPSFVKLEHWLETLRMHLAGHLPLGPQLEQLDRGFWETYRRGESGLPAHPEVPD

In test [1], `Cn1cc(-n2cnc3c(NCc4nc5cc(Cl)c(Cl)cc5[nH]4)nc(N4CCOCC4)nc32)cn1` registered a % of control of 3.94%.
Regarding `Cc1cc([C@@H](C)Nc2ccccc2C(=O)O)c2nc(N3CCOCC3)cc(=O)n2c1` [AZD-6482], the % of control in test [2] was found to be 83%.
In turn, `O=C(NOC[C@H](O)CO)c1ccc(F)c(F)c1Nc1ccc(I)cc1F` gave a % of control in test [3] of 68%.
For the compound `CCC(=O)N1CC[C@H](Nc2ncnc3c2CN(c2cnc(OC)c(C(F)(F)F)c2)CC3)C1` [LENIOLISIB], in test [4], the % of inhibition is 76%.
For `Cc1cc(F)c(C(=O)Nc2cccc(-c3nncn3C(C)C)n2)cc1-n1cnc(C2CC2)c1`, the % of control in test [5] came to 84%.
In the case of `Cc1cc(CN)cc(C)c1-c1ncn(C)c1-c1cncn1C`, the dTagg in test [6] stood at 0.9 K.
Regarding `CCC(=O)N1CCN(c2ccc(-n3c(=O)ccc4cnc5ccc(-c6cnc7ccccc7c6)cc5c43)cc2C(F)(F)F)CC1`, the % of control in test [7] came out at 93%.
Turning to `C=CC(=O)Nc1cc(-n2c(=O)ccc3cnc4ccc(-c5ccc(NS(C)(=O)=O)cc5)cc4c32)ccc1C`, the % of control came to 100% in test [8] (at 1 µM) and 99% in test [8] (at 10 µM).
